The test system of data set [1] is isolated one-day-old chicks. The data set is described as follows: chick call test (distress call activation in isolated chicks). The format is in vivo. The note with it: for ED150: Gallus gallus, ip. From the text: The call frequency of isolated one-day-old chicks which decreases during the course of the test is taken as an experimental behavioural model for manifestations of resignation in depression. […] Neurol. Psychiat.

A further data set has as its system Tetrabenazine. The data set is described as follows: Tetrabenazine antagonism (ptosis alleviation, mouse). The format is in vivo. The note with it: Table 1.
The test system of data set [2] is adrenergic, serotonergic receptors. Description: Receptor bonding (adrenergic, serotonergic). It is filed as binding. The conditions noted are these: for Receptor bonding: result in words.
A further data set concerns cholinergic function. Description: Effect on cholinergic function. The conditions noted are these: result in words.
The next data set can be described thus: LD50, mouse, oral route. The conditions noted are these: in vivo, by oral route.

The values that follow come from patent US4954516A, “Use of 1-benzyl-aminoalkyl-pyrrolidinones as antidepressants” (Boehringer Ingelheim KG, priority 1986, dated 1990).

pIC50: −log10 of the molar value. A value given as a limit tells only on which side of the number the result lay.

For “1-acetamido-2-pyrrolidinone [Compound B, reference compound]”, the “Chick call test ED150” value in data set [1] (i.p., Table 1) is above 160 mg/kg. In addition, in the data set with Tetrabenazine, the Tetrabenazine antagonism (ptosis alleviation, mouse) is above 640 mg/kg. Further, the Receptor bonding result in data set [2] is “none”. The “Effect on cholinergic function” value with cholinergic function is recorded as “none”.
With `O=C1CC(CN2CCOCC2)CN1Cc1ccc(F)cc1` (centres unmarked) [1-(4-Fluorobenzyl)-4-(morpholinomethyl)-pyrrolidin-2-one], the ED150 in data set [1] (Table II) came to 80 mg/kg.
The same measure, in the same setting: the figure for `COc1ccc(CN2CC(CN)CC2=O)cc1` (centres unmarked) [C, 1-(4-Methoxybenzyl)-4-aminomethyl-pyrrolidin-2-one] is 25 mg/kg.
Usually pIC50 stands for the IC50 on a negative log10 scale, so that one unit is a factor of ten. High values mean a small IC50, low ones a large IC50. Broadly, the LD50 is the dose at which mortality reaches 50%. Lower therefore signals greater toxicity. Consider `NCC1CC(=O)N(Cc2ccccc2)C1` (centres unmarked) [Compound A, 1-benzyl-4-aminomethyl-pyrrolidin-2-one], for which the ED150 in data set [1] (Table 1) was 40 mg/kg. In the data set with Tetrabenazine, this compound showed a Tetrabenazine antagonism (ptosis alleviation, mouse) of 100 mg/kg. In data set [2], the negative-log IC50 (pIC50) is below 5.00 and the Receptor bonding entry is “none”. Also, in the data set on cholinergic function, the “Effect on cholinergic function” value is recorded as “Demand”. For the same compound, the median lethal dose (LD50) in the data set “LD50, mouse, oral route” was above 2000 mg/kg.
With `NCC1CC(=O)N(Cc2ccc(F)cc2)C1` (centres unmarked) [D, 1-(4-Fluorobenzyl)-4-aminomethyl-pyrrolidin-2-one], in data set [1] (Table II), the ED150 was 20 mg/kg.
Same read-out and setting: then `CN1CCN(CC2CC(=O)N(Cc3ccccc3)C2)CC1` (centres unmarked) [H, 1-Benzyl-4-(N-methylpiperazinylmethyl)-pyrrolidin-2-one], with 18 mg/kg; and `CCN(CC)CC1CCC(=O)N1Cc1ccccc1` (centres unmarked) [J, 1-Benzyl-5-diethylaminomethyl-pyrrolidin-2-one], with 0.01 mg/kg.
For the compound `O=C1CCC(CN2CCCC2)N1Cc1ccccc1` (centres unmarked) [K, 1-Benzyl-5-pyrrolidinomethyl-pyrrolidin-2-one], in data set [1] (Table II), the ED150 was found to be 0.1 mg/kg.
Same read-out and setting: then `CN(C)CC1CCC(=O)N1Cc1ccc(Cl)cc1` (centres unmarked) [L, 1-(p-chlorobenzyl)-5-dimethylaminomethyl-pyrrolidin-2-one], with 0.1 mg/kg.
